Assay results reported in US4318847A, “Physiologically active tetrapeptides” (Zaidan Hojin Biseibutsu Kagaku Kenkyu Kai, priority 1979, dated 1982).
Where a SMILES comes first, the peptide text is derived from it. The star is where a group is joined. X1 = CC(C)C[C@@H](N)[C@H](O)C(=O)*

Tests used:
Assay type in all cases: biochemical
[1] = target: T1, leucine aminopeptidase (Leu-AP) (Sus scrofa, UniProt P28839); assay: Leu-AP (E.C. 3,4,11,1) inhibition assay; details: Leu-AP (Boehringer-Mannheim), leucyl-β-naphthylamide substrate, pH 7.6, 37° C., 30 minutes; read-out: IC/50 Leu--AP: amount of the peptide to inhibit the intact activity of the target enzyme by 50% (converted)
T1 construct: purchased Boehringer-Mannheim Co
T1 sequence (P28839 1-519): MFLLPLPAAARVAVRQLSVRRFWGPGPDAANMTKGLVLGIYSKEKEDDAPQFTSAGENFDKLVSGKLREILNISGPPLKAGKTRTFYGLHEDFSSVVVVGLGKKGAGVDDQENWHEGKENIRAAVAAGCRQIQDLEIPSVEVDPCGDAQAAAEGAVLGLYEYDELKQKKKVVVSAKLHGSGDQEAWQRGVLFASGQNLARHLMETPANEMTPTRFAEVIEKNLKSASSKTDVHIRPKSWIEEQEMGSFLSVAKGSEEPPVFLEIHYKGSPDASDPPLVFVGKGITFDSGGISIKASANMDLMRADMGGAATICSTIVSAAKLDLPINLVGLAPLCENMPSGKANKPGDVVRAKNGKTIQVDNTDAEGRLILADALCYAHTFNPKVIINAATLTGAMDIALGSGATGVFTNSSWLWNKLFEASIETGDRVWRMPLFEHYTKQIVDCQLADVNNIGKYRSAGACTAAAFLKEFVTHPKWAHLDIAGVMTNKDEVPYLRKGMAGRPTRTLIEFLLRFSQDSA
Method: For enzyme assay, 0.25 ml of 2 mM […], 0.6 ml of 0.1 M Tris-HCl buffer, pH 7.6, and 0.1 ml of an aqueous solution containing a test compound were mixed and allowed to stand at 37° C. for 3 minutes. After a 20-fold dilution of Leu-AP (Boehringer-Mannheim Co.) in 0.1 M Tris-HCl buffer, pH 7.6 (0.05 ml) was added to the solution, the reaction was performed at 37° C. for 30 minutes. The inhibition percentage was measured as detailed in (1).

[2] = target: T2, aminopeptidase A (AP-A) (Homo sapiens, UniProt Q07075); assay: AP-A (E.C. 3,4,11,7) inhibition assay; details: L-α-glutamyl-β-naphthylamide substrate, pH 7.0, 37° C., 30 minutes; read-out: IC/50 AP--A: amount of the peptide to inhibit the intact activity of the target enzyme by 50% (converted)
T2 construct: an AP-A solution which was obtained by ammonium sulfate fractionation according to the method of Nagatsu et al; from tissue
T2 sequence (Q07075 whole entry): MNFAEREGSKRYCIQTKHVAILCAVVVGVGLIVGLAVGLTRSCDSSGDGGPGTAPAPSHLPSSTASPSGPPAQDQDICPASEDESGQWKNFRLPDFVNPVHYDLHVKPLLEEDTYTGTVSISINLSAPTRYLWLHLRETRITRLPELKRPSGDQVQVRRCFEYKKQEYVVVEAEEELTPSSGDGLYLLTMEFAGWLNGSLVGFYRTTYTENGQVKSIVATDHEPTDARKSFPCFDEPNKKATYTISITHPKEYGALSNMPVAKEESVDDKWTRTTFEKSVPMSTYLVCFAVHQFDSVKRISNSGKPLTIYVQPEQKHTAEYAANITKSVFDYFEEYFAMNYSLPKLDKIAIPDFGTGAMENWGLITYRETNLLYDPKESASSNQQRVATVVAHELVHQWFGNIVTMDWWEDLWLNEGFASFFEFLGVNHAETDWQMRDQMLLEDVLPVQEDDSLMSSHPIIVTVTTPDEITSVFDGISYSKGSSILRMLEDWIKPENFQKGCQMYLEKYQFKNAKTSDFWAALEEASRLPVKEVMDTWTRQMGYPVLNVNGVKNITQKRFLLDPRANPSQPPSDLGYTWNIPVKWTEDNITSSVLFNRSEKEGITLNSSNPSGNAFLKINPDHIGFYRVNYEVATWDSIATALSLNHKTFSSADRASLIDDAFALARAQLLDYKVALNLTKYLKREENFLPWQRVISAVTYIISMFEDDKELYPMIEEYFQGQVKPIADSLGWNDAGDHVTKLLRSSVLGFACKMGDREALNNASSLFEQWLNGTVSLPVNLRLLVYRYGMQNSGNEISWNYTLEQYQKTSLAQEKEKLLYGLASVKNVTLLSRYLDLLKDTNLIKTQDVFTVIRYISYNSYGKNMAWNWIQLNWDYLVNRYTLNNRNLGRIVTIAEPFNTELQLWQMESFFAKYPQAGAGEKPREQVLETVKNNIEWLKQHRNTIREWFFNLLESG
Method: That is, 0.25 ml of 2 mM L-α-glutamyl-β-naphthylamide, 0.54 ml of 0.1 M Tris-HCl buffer, pH 7.0, 0.01 ml of 0.1 M calcium chloride and 0.1 ml of a test sample in water were mixed and kept at 37° C. for 3 minutes. The reaction was initiated by addition of 0.1 ml of an AP-A solution which was obtained by ammonium sulfate fractionation according to the method of Nagatsu et al. After incubation at 37° C. for 30 minutes, 1 ml of 1.0 M acetate buffer, pH 4.2, containing 1.0 mg/ml Garnet GBC (orthoaminoazotoluene diazonium salt) and 10% Tween 20 (Atlas Chemical Co., U.S.A.) was added to the reaction solution and then allowed to stand at room temperature for 15 minutes. The absorbance of the test solution (a) was measured at 530 nm. The control solution without the test sample was used as the blank test (absorbance (b)). The inhibition percentage on aminopeptidase A was calculated as [(b-a)/b]x100.

[3] = target: glycylprolylleucine tripeptidylaminopeptidase (Gly-Pro-Leu-AP); assay: Gly-Pro-Leu-AP inhibition assay; details: enzyme from cell membrane fraction of rat liver, Hanks solution pH 7.2, 37° C., 30 minutes
Method: According to the method of Aoyagi et al. (T. Aoyagi et al: BIOCHIMICA ET BIOPHYSICA ACTA 452, 131-143(1976)), after a reaction mixture consisting of 0.25 ml of 2 mM glycyl-L-α-prolyl-L-α-leucyl-β-naphthylamide (Buchem Fine Chemicals Co.), 0.6 ml of the Hanks solution, pH 7.2, and 0.1 ml of an aqueous test solution was kept at 37° C. for 3 minutes, 0.05 ml of a Gly-Pro-Leu-AP that was purified from the cell membrane fraction of the rat liver was added and the reaction was carried out at 37° C. for 30 minutes. The same procedure as described in (1) was used for calculation of the inhibition percentage.
The Hanks solution listed above was prepared by dissolving 8.0 g sodium chloride, 0.4 g potassium chloride, 0.14 g calcium chloride, 0.10 g magnesium chloride, 0.06 g disodium-monohydrogen phosphate, 0.06 g monopotassium dihydrogen phosphate, 0.10 g magnesium sulfate and 1.0 g glucose in 1 liter of distilled water and adjusting the solution to pH 7.2 with solid sodium bicarbonate (about 350 mg).

[4] = target: glycylhistidyllysine tripeptidylaminopeptidase (Gly-His-Lys-AP); assay: Gly-His-Lys-AP inhibition assay; details: enzyme from FM3A cells (mouse mammary tumor), Hanks solution pH 7.2, 37° C., 30 minutes
Method: For enzyme assay, 0.25 ml of 0.5 mM glycyl-L-α-histidyl-L-α-lysyl-β-naphthylamide, 0.62 ml of the Hanks solution, pH 7.2, and 0.1 ml of an aqueous solution of a substance to be tested were combined and maintained at 37° C. for 3 minutes. Gly-His-Lys-AP solution (0.03 ml) which was purified from the FM3A cells (a line of culture cells derived from mouse mammary tumor) by the method described in the reference of (4) was added to the solution and incubated at 37° C. for 30 minutes. The inhibition percentage was calculated as shown in (1).
Gly-His-Lys -β-naphthylamide used above was prepared as follows: to a solution containing 1 g of Gly-His-Lys-acetate (Buchem Fine Chemicals Co.) and 3.0 g of sodium bicarbonate in 60 ml of distilled water, 2.13 ml of Z-Cl was added dropwise under cooling with ice and then stirred for 3 hours. The same treatment as detailed above in Experiment 1-(7) was performed to give 605.8 mg of the Z-derivative of the tripeptide. […]

SMILES | IC50 [1] [µM] | IC50 [2] [µM] | IC/50 Gly--Pro--Leu--AP: amount of the peptide to inhibit the intact activity of the target enzyme by 50% [3] [µg/mL] | IC/50 Gly--His--Lys--AP: amount of the peptide to inhibit the intact activity of the target enzyme by 50% [4] [µg/mL]
CC(C)C[C@@H](N)[C@H](O)C(=O)N[C@@H](C)C(=O)N[C@@H](C)C(=O)N[C@@H](CC(=O)O)C(=O)O [X--Ala--Ala--Asp] | > 597 | > 597 | – | –
CC(C)C[C@@H](N)[C@H](O)C(=O)N[C@@H](CC(=O)O)C(=O)O [X--Asp] | 105 | > 905 | – | –
CC(C)C[C@@H](N)[C@H](O)C(=O)N[C@@H](CCC(=O)O)C(=O)N[C@H](C(=O)N[C@@H](CC(=O)O)C(=O)O)C(C)C [X--Glu--Val--Asp, (2S,3R)-AHMHA-Glu-Val-Asp] | 79.3 | 3.96 | 6 | 2.0
CC(C)C[C@H](NC(=O)[C@@H](O)[C@H](N)CC(C)C)C(=O)N[C@H](C(=O)N[C@@H](CC(=O)O)C(=O)O)C(C)C [X--Leu--Val--Asp, (2S,3R)-AHMHA-Leu-Val-Asp] | 0.614 | 10.2 | – | –
CC(C)C[C@@H](N)[C@H](O)C(=O)N[C@@H](CCCCN)C(=O)N[C@H](C(=O)N[C@@H](CC(=O)O)C(=O)O)C(C)C [X--Lys--Val--Asp, (2S,3R)-AHMHA-Lys-Val-Asp] | 218 | 2.98 | – | –
CC(C)C[C@@H](N)[C@H](O)C(=O)N[C@@H](CCCCN)C(=O)N[C@H](C(=O)N[C@H](C(=O)O)C(C)C)C(C)C [X--Lys--Val--Val, (2S,3R)-AHMHA-Lys-Val-Val] | 369 | 3.9 | – | –
CC(C)C[C@@H](N)[C@H](O)C(=O)N1CCC[C@H]1C(=O)O [X--Pro] | 83.2 | 774 | – | –
CC(C)C[C@@H](N)[C@H](O)C(=O)N[C@H](C(=O)N[C@H](C(=O)N[C@@H](CC(=O)O)C(=O)O)C(C)C)[C@@H](C)O [X--Thr--Val--Asp, (2S,3R)-AHMHA-Thr-Val-Asp] | 5.25 | 0.315 | – | –
CC(C)C[C@@H](N)[C@H](O)C(=O)N[C@H](C(=O)N[C@@H](CC(=O)O)C(=O)O)C(C)C [X--Val--Asp] | 0.799 | 32 | – | –
CC(C)C[C@@H](N)[C@H](O)C(=O)N[C@H](C(=O)N[C@@H](CCC(=O)O)C(=O)N[C@@H](CC(=O)O)C(=O)O)C(C)C [X--Val--Glu--Asp, (2S,3R)-AHMHA-Val-Glu-Asp] | 0.198 | 15.9 | 15 | 100
CC(C)C[C@H](NC(=O)[C@@H](NC(=O)[C@@H](O)[C@H](N)CC(C)C)C(C)C)C(=O)N[C@@H](CC(=O)O)C(=O)O [X--Val--Leu--Asp, (2S,3R)-AHMHA-Val-Leu-Asp] | 1.43 | 0.614 | – | –
CC(C)C[C@@H](N)[C@H](O)C(=O)N[C@H](C(=O)N[C@@H](CCCCN)C(=O)N[C@@H](CC(=O)O)C(=O)O)C(C)C [X--Val--Lys--Asp, (2S,3R)-AHMHA-Val-Lys-Asp] | 6.95 | 19.9 | – | –
CC(C)C[C@@H](N)[C@H](O)C(=O)N[C@H](C(=O)N[C@H](C(=O)N[C@@H](CC(=O)O)C(=O)O)[C@@H](C)O)C(C)C [X--Val--Thr--Asp, (2S,3R)-AHMHA-Val-Thr-Asp] | 2.1 | 2.1 | – | –
CC(C)C[C@@H](N)[C@H](O)C(=O)N[C@H](C(=O)N[C@H](C(=O)N[C@@H](Cc1ccccc1)C(=O)O)[C@@H](C)O)C(C)C [X--Val--Thr--Phe, (2S,3R)-AHMHA-Val-Thr-Phe] | 0.727 | 1.18 | – | –
CC(C)C[C@@H](N)[C@H](O)C(=O)N[C@H](C(=O)N[C@H](C(=O)N[C@@H](CCCNC(=N)N)C(=O)O)C(C)C)C(C)C [X--Val--Val-- Arg, (2S,3R)-AHMHA-Val-Val-Arg] | 38.8 | 26.2 | – | –
CC(C)C[C@@H](N)[C@H](O)C(=O)N[C@H](C(=O)N[C@H](C(=O)N[C@@H](CCC(=O)O)C(=O)O)C(C)C)C(C)C [X--Val--Val--Glu, reference compound] | 4.5 | 4.09 | – | –
CC(C)C[C@@H](N)[C@H](O)C(=O)N[C@H](C(=O)N[C@H](C(=O)N[C@@H](CCCCN)C(=O)O)C(C)C)C(C)C [X--Val--Val--Lys, (2S,3R)-AHMHA-Val-Val-Lys] | 65.6 | 43.1 | – | –
CC(C)C[C@@H](N)[C@H](O)C(=O)N[C@H](C(=O)N[C@H](C(=O)N[C@@H](Cc1ccccc1)C(=O)O)C(C)C)C(C)C [X--Val--Val--Phe, (2S,3R)-AHMHA-Val-Val-Phe] | 4.34 | 14.2 | – | –
CC(C)C[C@@H](N)[C@H](O)C(=O)N[C@H](C(=O)N[C@H](C(=O)N1CCC[C@H]1C(=O)O)C(C)C)C(C)C [X--Val--Val--Pro, (2S,3R)-AHMHA-Val-Val-Pro] | 5.91 | 76.7 | – | –
CC(C)C[C@@H](N)[C@H](O)C(=O)N[C@H](C(=O)N[C@H](C(=O)N[C@H](C(=O)O)[C@@H](C)O)C(C)C)C(C)C [X--Val--Val--Thr, (2S,3R)-AHMHA-Val-Val-Thr] | 7.6 | 5.86 | – | –
CC(C)C[C@@H](N)[C@H](O)C(=O)N[C@H](C(=O)N[C@H](C(=O)N[C@H](C(=O)O)C(C)C)C(C)C)C(C)C [X--Val--Val--Val, (2S,3R)-AHMHA-Val-Val-Val] | 3.92 | 9.38 | – | –
CC(C)C[C@@H](N)[C@H](O)C(=O)N[C@H](C(=O)N[C@H](C(=O)N[C@H](C(=O)N[C@@H](CC(=O)O)C(=O)O)C(C)C)C(C)C)C(C)C [X--Val--Val--Val--Asp] (X1-VVVD-OH) | 7.32 | 31.4 | – | –
CC(C)C[C@@H](N)[C@H](O)C(=O)N[C@H](C(=O)N[C@H](C(=O)O)C(C)C)C(C)C [X--Val--Val] | 2.5 | 10 | – | –
CC(C)C[C@@H](N)[C@H](O)C(=O)N[C@H](C(=O)O)C(C)C [X--Val] | 1.92 | 864 | – | –
